Test results as given in patent US4046904A, “Novel penicillin, and its preparation and use” (Sumitomo Chemical Company, Limited, priority 1975, dated 1977).
Converted amounts (≈) assume the structure as drawn.

Tests used:
Pseudomonas = settings: background statement; cited from earlier work
Escherichia coli [1] = assay: Intraperitoneal infection in mice, median protective dose (Table 2); format: in vivo; settings: sc, E. coli strain NIHJ, male ICR-SLC mice, subcutaneous, 1 and 4 hours after infection, sodium salt, read-out: PD50
Method: (§1) Note: Compound (I), Compound (A) and Compound (B) were subjected to the test in the form of the sodium salt. For each test, eight male ICR-SLC strain mice were used at each dose level. MIC was determined by the nutrient broth dilution method. In determination of PD50, subcutaneous treatment was carried out twice, i.e. 1 and 4 hours after infection.

Pseudomonas aeruginosa [2] = assay: as above; format: in vivo; settings: sc, subcutaneous, 1 and 4 hours after infection, sodium salt, read-out: PD50
Method: as §1

Klebsiella pneumoniae [3] = assay: as above; format: in vivo; settings: sc, subcutaneous, 1 and 4 hours after infection, sodium salt, read-out: PD50
Method: as §1

Enterobacter aerogenes = assay: Median MIC, clinical isolates, agar-plate dilution (Table 1); format: cell-based; settings: Klebsiella aerogenes, 8 clinical isolates, sodium salt, read-out: Median minimum inhibitory concentration
Method: (§2) Note: Compound (I) and Compound (A) were subjected to the test in the form of the sodium salt. The minimum inhibitory concentration (MIC) was determined using the agar-plate dilution method recommended by Japan Society of Chemotherapy.

Escherichia = assay: as above; format: cell-based; settings: read-out: Median minimum inhibitory concentration
Method: as §2

Staphylococcus aureus [4] = assay: as above; format: cell-based; settings: 37 clinical isolates, sodium salt, read-out: Median minimum inhibitory concentration
Method: as §2

Pseudomonas aeruginosa [5] = assay: as above; format: cell-based; settings: 49 clinical isolates, sodium salt, read-out: Median minimum inhibitory concentration
Method: as §2

Proteus vulgaris = assay: as above; format: cell-based; settings: 7 clinical isolates, sodium salt, read-out: Median minimum inhibitory concentration
Method: as §2

Serratia = assay: as above; format: cell-based; settings: 6 clinical isolates, sodium salt, read-out: Median minimum inhibitory concentration
Method: as §2

Klebsiella pneumoniae [6] = assay: as above; format: cell-based; settings: 26 clinical isolates, sodium salt, read-out: Median minimum inhibitory concentration
Method: as §2

Proteus morganii = assay: as above; format: cell-based; settings: Morganella morganii, 14 clinical isolates, sodium salt, read-out: Median minimum inhibitory concentration
Method: as §2

Escherichia coli [7] = assay: MIC, nutrient broth dilution (Table 2); format: cell-based; settings: Escherichia coli strain NIHJ, sodium salt
Method: as §1

Pseudomonas aeruginosa [8] = assay: MIC, nutrient broth dilution (Table 2); format: cell-based
Method: as §1

Klebsiella pneumoniae [9] = assay: MIC, nutrient broth dilution (Table 2); format: cell-based; settings: Klebsiella pneumoniae strain No. 6, sodium salt
Method: as §1

Staphylococcus aureus [10] = assay: Intraperitoneal infection in mice, median protective dose (Table 5); format: in vivo; settings: sc, S. aureus strain A24, male ICR-SLC mice, subcutaneous, 1, 3 and 5 hours after infection, sodium salt, read-out: PD50
Method: (§3) The relative activities of Compound (I) and Compound (C) against various intraperitioneal infections in mice evaluated by the minimum inhibitory concentrations and the means median protective doses (subcutaneously administered) are shown in Table 5.
(§4) Note: Compound (I) and Compound (C) were subjected to the test in the form of the sodium salt. For each test, five male ICR-SLC strain mice were used at each dose level. MIC was determined by the nutrient broth dilution method. In determination of PD50, subsutaneous treatment was carried out three times, i.e. 1, 3 and 5 hours after infection.

Streptococcus faecalis [11] = assay: as above; format: in vivo; settings: Enterococcus faecalis, sc; S. faecalis strain F10; male ICR-SLC mice; subcutaneous, 1, 3 and 5 hours after infection; sodium salt; read-out: PD50
Method: as §3, §4

Pseudomonas aeruginosa [12] = assay: as above; format: in vivo; settings: sc, P. aeruginosa strain TS, male ICR-SLC mice, subcutaneous, 1, 3 and 5 hours after infection, sodium salt, read-out: PD50
Method: as §3, §4

Klebsiella pneumoniae [13] = assay: as above; format: in vivo; settings: sc, K. pneumoniae strain No. 1, male ICR-SLC mice, subcutaneous, 1, 3 and 5 hours after infection, sodium salt, read-out: PD50
Method: as §3, §4

[14] = Urinary excretion rate in rats after intramuscular administration (Table 8); format: in vivo, Wistar-HLA strain rats; settings: rat, urine, im, 20 mg/kg, male rats, intramuscular 20 mg/kg, sodium salt
Method: The urinary excretion rates of Compound (I) and Compound (C) following an intramuscular administration of 20 mg/kg in male Wistar-HLA strain rats are shown in Table 8.
(§5) Note: Compound (I) and Compound (C) were subjected to the test in the form of the sodium salt.

Proteus mirabilis = assay: MIC (Table 3); format: cell-based; settings: Proteus mirabilis strain GN2425; sodium salt
From the text: The minimum inhibitory concentrations obtained with Compound (I) and Compound (C) against the following organisms representing 6 genera are shown in Table 3.
as §5

Staphylococcus aureus [15] = assay: Median MIC, clinical isolates, agar-plate dilution (Table 4); format: cell-based; settings: 37 strains, agar-plate dilution, sodium salt, read-out: Median minimum inhibitory concentration
Method: (§6) Note: Compound (I) and Compound (C) were subjected to the test in the form of the sodium salt. MIC was determined using the agar-plate dilution method.

Streptococcus faecalis [16] = assay: as above; format: cell-based; settings: Enterococcus faecalis, 23 strains, agar-plate dilution, sodium salt, read-out: Median minimum inhibitory concentration
Method: as §6

[17] = Serum level in mice after subcutaneous administration (Table 7); format: in vivo, ICR-SLC strain mice; settings: mouse, sc, subcutaneous 50 mg/kg, sodium salt
Method: The peak serum concentrations of Compound (I) and Compound (C) in ICR strain mice following subcutaneous administration at 50 mg/kg are shown in Table 7.
Note: Compound (I) and Compound (C) were subjected to the test in the form of the sodium salt. For the test, three male ICR-SLC strain mice were used. The bioassay was carried out according to the disc method using Bacillus subtilis.

[18] = Protein-binding rate in human serum (Table 6); format: in vitro ADME; settings: human, serum, sodium salt
From the text: The following data are related to the pharmacokinetic profiles of Compound (I) compared with Compound (C).
as §5

[19] = Acute toxicity in mice, intraperitoneal (Table 9); settings: mouse, in vivo, ip
From the text: The acute toxicity of Compound (I) and Compound (C) in ICR strain mice when administered by intraperitoneal route are shown in Table 9.
as §5

Streptococcus faecalis [20] = assay: MIC, nutrient broth dilution (Table 5); format: cell-based; settings: Enterococcus faecalis, Streptococcus faecalis strain F10, sodium salt
Method: as §3, §4

Pseudomonas aeruginosa [21] = assay: MIC, nutrient broth dilution (Table 5); format: cell-based; settings: Pseudomonas aeruginosa strain TS, sodium salt
Method: as §3, §4

For `CC1(C)S[C@@H]2[C@H](NC(=O)[C@H](N)c3ccccc3)C(=O)N2[C@H]1C(=O)O` [Ampicillin], the anti-Pseudomonas activity (Pseudomonas) is listed as “does not exert any appreciable anti-Pseudomonas activity”.
For `CC1(C)S[C@@H]2[C@H](NC(=O)C(C(=O)O)c3ccccc3)C(=O)N2[C@H]1C(=O)O` (stereo partly shown) [Carbenicillin], the anti-Pseudomonas activity (Pseudomonas) is listed as “not sufficiently strong”.
`CC1(C)S[C@@H]2[C@H](NC(=O)[C@H](NC(=O)c3cnccc3O)c3ccc(O)cc3)C(=O)N2[C@H]1C(=O)O` [Compound (A), 6-[D-2-(4-hydroxypyridine-3-carbonamido)-2-(p-hydroxyphenyl)acetamido]penicillanic acid, reference compound] showed an ED50 (Escherichia coli [1]) of 3 mg/kg, an ED50 (Pseudomonas aeruginosa [2]; P. aeruginosa strain NC-5, male ICR-SLC mice) of 60 mg/kg and an ED50 (Pseudomonas aeruginosa [2]; P. aeruginosa strain T, male ICR-SLC mice) of 51 mg/kg. The ED50 (Klebsiella pneumoniae [3]; K. pneumoniae strain No. 1, male ICR-SLC mice) was 100 mg/kg, the ED50 (Klebsiella pneumoniae [3]; K. pneumoniae strain No. 6, male ICR-SLC mice) was 120 mg/kg and the ED50 (Klebsiella pneumoniae [3]; K. pneumoniae strain No. 20, male ICR-SLC mice) was greater than 150 mg/kg. The MIC50 (Enterobacter aerogenes) was 100 µg/mL, the MIC50 (Escherichia) was 14 µg/mL (≈ 28.8 µM) and the MIC50 (Staphylococcus aureus [4]) was 21 µg/mL. For the same compound, the MIC50 (Pseudomonas aeruginosa [5]) was 5 µg/mL, the MIC50 (Proteus vulgaris) was 115 µg/mL and the MIC50 (Serratia) was greater than 200 µg/mL. It also gave an MIC50 (Klebsiella pneumoniae [6]) of 73 µg/mL, an MIC50 (Proteus morganii) of 50 µg/mL and an MIC (Escherichia coli [7]) of 12.5 µg/mL. It also gave an MIC (Pseudomonas aeruginosa [8]; Pseudomonas aeruginosa strain NC-5, sodium salt) of 6.25 µg/mL, an MIC (Pseudomonas aeruginosa [8]; Pseudomonas aeruginosa strain T, sodium salt) of 12.5 µg/mL and an MIC (Klebsiella pneumoniae [9]) of 100 µg/mL.
Compound `CC1(C)S[C@@H]2[C@H](NC(=O)[C@H](NC(=O)c3cnc4cccnc4c3O)c3ccc(O)cc3)C(=O)N2[C@H]1C(=O)O` [Compound (C), 6-[D-2-(4-hydroxy-1,5-naphthyridine-3-carbonamido)-2-(p-hydroxyphenyl)acetamido]penicillanic acid, reference compound] has an ED50 (Staphylococcus aureus [10]) of 32 mg/kg, an ED50 (Streptococcus faecalis [11]) of 6 mg/kg and an ED50 (Pseudomonas aeruginosa [12]) of 15 mg/kg. The ED50 (Klebsiella pneumoniae [13]) was 18 mg/kg, the dose excreted at 6 h ([14]; 0-6 hr.) was 19.5% and the dose excreted at 24 h ([14]; 0-24 hr.) was 20%. The dose excreted at 24 h ([14]; 6-24 hr.) was 0.5%, the MIC (Proteus mirabilis) was 1.56 µg/mL and the MIC50 (Staphylococcus aureus [15]) was 60 µg/mL. For the same compound, the MIC50 (Streptococcus faecalis [16]) was 3.8 µg/mL, the concentration at 0.5 h ([17]; 1/2 hr.) was 32000 ng/mL and the concentration at 0.25 h ([17]; 1/4 hr.) was 44000 ng/mL. The concentration at 1 h ([17]; 1 hr.) was 8000 ng/mL, the concentration at 2 h ([17]; 2 hr.) was 5000 ng/mL and the fraction unbound ([18]; Ultracentrifugation method) was 0.08. The fraction unbound ([18]; Ultrafiltration method) was 0.1, the LD50 [19] was 3100 mg/kg and the MIC (Streptococcus faecalis [20]) was 1.56 µg/mL. The MIC (Pseudomonas aeruginosa [21]) was 3.13 µg/mL.
For `CC1(C)S[C@@H]2[C@H](NC(=O)C(c3ccccc3)S(=O)(=O)O)C(=O)N2[C@H]1C(=O)O` (stereo partly shown) [Sulfocillin], the anti-Pseudomonas activity (Pseudomonas) is listed as “not sufficiently strong”.
